From US10611760B2, “Therapeutic compounds as inhibitors of the orexin-1 receptor” (C4X Discovery Limited, priority 2014, dated 2020)
Structures can show the parent of a compound that is named as a salt.

Experiments:
Assay type in all cases: cell-based
hOX2R [1] = target: T1, hOX2R (Homo sapiens, UniProt O43614); experiment: Intracellular calcium measurements using stable-replicating cells, Method B (CHO cells, FLIPR Tetra), OX2; settings: orexin A at EC75, read-out: pIC50 OX2 (converted)
T1 sequence (O43614 1-444): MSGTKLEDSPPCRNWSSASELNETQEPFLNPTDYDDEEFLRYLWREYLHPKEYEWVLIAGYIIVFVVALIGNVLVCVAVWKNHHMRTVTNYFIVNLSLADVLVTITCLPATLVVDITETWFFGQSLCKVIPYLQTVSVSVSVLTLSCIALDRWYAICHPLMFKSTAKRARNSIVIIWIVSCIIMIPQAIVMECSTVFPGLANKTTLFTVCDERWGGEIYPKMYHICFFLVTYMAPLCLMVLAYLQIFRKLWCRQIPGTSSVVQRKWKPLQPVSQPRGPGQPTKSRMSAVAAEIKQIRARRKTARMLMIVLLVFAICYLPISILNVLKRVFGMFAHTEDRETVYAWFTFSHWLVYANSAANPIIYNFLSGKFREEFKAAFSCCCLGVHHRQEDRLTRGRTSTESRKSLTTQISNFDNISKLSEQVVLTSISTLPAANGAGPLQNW
Experimental: (§1) Intracellular Calcium Measurements Using Stable-replicating Cells:
(§2) Human OX1 or human OX2 receptor expressing CHO cells are plated into 384 well black, clear bottom, CellBIND plates at a seeding density of 10,000 cells/75 μL growth media. The seeded plates are incubated at 37° C. in air supplemented with 5% CO2 overnight.
(§3) The next day media is removed and replaced with 30 μL/well of cell loading buffer (a vial of Calcium 5 is solubilized in 20 mL of assay buffer) and the cells incubated for 1 hr at 37° C. The serially diluted test compounds (10 μL/well) are added to the cell plate by the FLIPR Tetra and the addition is monitored for 5 mins by the instrument. The cell plate is then removed and incubated for additional 25 mins in a humidified incubator at […] prior to being placed back into the FLIPR Tetra. Finally 10 μL of orexin A in assay buffer +0.1% (w/v) bovine serum albumin is dispensed by the FLIPR Tetra at an EC75 concentration determined for each assay run. Fluorescence is measured at excitation and emission wavelengths of 485 nm and 525 nm respectively and data analyzed using GraphPad Prism for the EC75 value of orexin A and Aplus to determine an IC50 value for each test compound.

hOX1R [2] = target: T2, hOX1R (Homo sapiens, UniProt O43613); experiment: Intracellular calcium measurements using division-arrested cells, OX1; settings: agonist orexin A at 2×EC50, * = single experiment, otherwise average of at least two, read-out: pIC50 OX1 (converted)
T2 sequence (O43613 1-425): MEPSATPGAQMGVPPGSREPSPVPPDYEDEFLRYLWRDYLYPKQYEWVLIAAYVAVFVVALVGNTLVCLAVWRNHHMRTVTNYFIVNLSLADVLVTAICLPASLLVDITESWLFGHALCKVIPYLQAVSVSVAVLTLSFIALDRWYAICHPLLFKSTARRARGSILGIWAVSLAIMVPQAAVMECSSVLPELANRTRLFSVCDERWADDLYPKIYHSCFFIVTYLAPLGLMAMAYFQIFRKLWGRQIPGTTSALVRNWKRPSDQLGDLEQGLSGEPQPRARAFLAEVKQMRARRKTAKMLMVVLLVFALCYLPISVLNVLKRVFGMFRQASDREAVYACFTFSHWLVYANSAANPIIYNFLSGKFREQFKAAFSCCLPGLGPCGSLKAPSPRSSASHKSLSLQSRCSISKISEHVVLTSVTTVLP
Experimental: (§4) Intracellular Calcium Measurements Using Division-arrested Cells (Table 1):
(§5) Test compounds are prepared as 10 mM stock solutions in DMSO, then serially diluted in half log concentrations with DMSO followed by dilution with assay buffer (HBSS (Sigma-Aldrich, H8264) containing 20 mM HEPES (Sigma-Aldrich, H4034), 0.1% (w/v) bovine serum albumin and adjusted to pH 7.4) to a top final assay concentration of 10 μM.
(§6) Human OX1 (CT-A474) and human OX2 (CT-A475) receptor-expressing division-arrested cells are plated into 384 well black, clear bottom, cell-bind plates at a seeding density of 10,000 cells/50 μL growth media. The seeded plates are incubated at 37° C. in air supplemented with 5% CO2 for 16 hrs.
(§7) The media is removed and replaced with 30 μL/well of cell loading buffer (a vial of Calcium 5 is solubilized in 22 mL of assay buffer to which a freshly prepared 250 mM solution of probenecid in 1:1 1M NaOH to assay buffer (200 μL) is added) and the cells incubated for 1 hr at 37° C. The serially diluted test compounds (10 μL/well) are added to the plate, which is then incubated for 10 mins and placed in a FlexStation III reader.

hOX2R [3] = target: T1, hOX2R; experiment: Intracellular calcium measurements using division-arrested cells, OX2; settings: agonist orexin B at 2×EC50, * = single experiment, otherwise average of at least two, read-out: pIC50 OX2 (converted)
Experimental: as §4, §5, §6, §7

hOX1R [4] = target: T2, hOX1R; experiment: Intracellular calcium measurements using stable-replicating cells, Method B (CHO cells, FLIPR Tetra), OX1; settings: orexin A at EC75, read-out: pIC50 OX1 (converted)
Experimental: as §1, §2, §3

Row | SMILES | IC50 (hOX2R [1]) | IC50 (hOX1R [2]) | IC50 (hOX2R [3]) | IC50 (hOX1R [4])
1 | CC[C@@H](CNc1ncc(C(F)(F)F)cn1)N(CC)C(=O)c1nc(C)ccc1-n1nccn1 [Example 73, (S)—N-ethyl-6-methyl-3-(2H-1,2,3-triazol-2-yl)-N-(1-((5-(trifluoromethyl)pyrimidin-2-yl)amino)butan-2-yl)picolinamide] | > 1 µM |  |  | 
2 | Cc1cc(C(=O)N(C)[C@H](CNc2ccc(Cl)cn2)C(C)C)c2ccccc2n1 [Example 51, (S)—N-(1-((5-chloropyridin-2-yl)amino)-3-methylbutan-2-yl)-N,2-dimethylquinoline-4-carboxamide] |  | 0.631 µM | > 10 µM | 
3 | CC(C)[C@@H](CNc1ccc(Cl)cn1)N(C)C(=O)c1ccccc1OC(F)(F)F [Example 52, (S)—N-(1-((5-chloropyridin-2-yl)amino)-3-methylbutan-2-yl)-N-methyl-2-(trifluoromethoxy)benzamide] |  | 1 µM | > 7.94 µM | 
4 | CC(C)[C@@H](CNc1ccc(Cl)cn1)N(C)C(=O)c1ccccc1-n1nccn1 [Example 28, (S)—N-(1-((5-chloropyridin-2-yl)amino)-3-methylbutan-2-yl)-N-methyl-2-(2H-1,2,3-triazol-2-yl)benzamide] |  | 0.2 µM | > 10 µM | 
5 | CC[C@@H](CNc1ccc(Cl)cn1)NC(=O)c1cc(C)ccc1-n1nccn1 [Example 2, (S)—N-(1-((5-chloropyridin-2-yl)amino)butan-2-yl)-5-methyl-2-(2H-1,2,3-triazol-2-yl)benzamide] |  | 0.0398 µM | 2 µM | 
6 | CC[C@@H](CNc1ncc(C(F)(F)F)cn1)N(C)C(=O)c1nc(C)ccc1-c1ncccn1 [Example 84, (S)—N,6-dimethyl-3-(pyrimidin-2-yl)-N-(1-((5-(trifluoromethyl)pyrimidin-2-yl)amino)butan-2-yl)picolinamide formic acid salt] |  |  |  | 0.002 µM
7 | CC[C@@H](CNc1ncc(C(F)(F)F)cn1)N(C)C(=O)c1nc(OC)ccc1-n1nccn1 [Example 92, (S)-6-methoxy-N-methyl-3-(2H-1,2,3-triazol-2-yl)-N-(1-((5-(trifluoromethyl)pyrimidin-2-yl)amino)butan-2-yl)picolinamide] |  |  |  | 0.0316 µM
8 | CC(C)[C@@H](CNc1ccc(Cl)cc1)N(C)C(=O)c1ccccc1-c1ccccc1 [Example 59, (S)—N-(1-((4-chlorophenyl)amino)-3-methylbutan-2-yl)-N-methyl-[1,1′-biphenyl]-2-carboxamide] |  | 0.158 µM | > 6.31 µM | 
9 | CC[C@@H](CNc1ccc(Cl)cn1)NC(=O)c1cc(Cl)ccc1-n1nccn1 [Example 25, (S)-5-chloro-N-(1-((5-chloropyridin-2-yl)amino)butan-2-yl)-2-(2H-1,2,3-triazol-2-yl)benzamide] |  | 0.631 µM | > 10 µM | 
10 | CC(C)[C@@H](CNc1nc2ccccc2n1C)N(C)C(=O)c1ccccc1-c1ccccc1 [Example 38, (S)—N-methyl-N-(3-methyl-1-((1-methyl-1H-benzo[d]imidazol-2-yl)amino)butan-2-yl)-[1,1′-biphenyl]-2-carboxamide] |  | 0.0794 µM | > 3.98 µM | 
11 | CC[C@@H](CNc1ccc(Cl)cn1)N(C)C(=O)c1cc(Cl)ccc1-n1nccn1 [Example 16, (S)-5-chloro-N-(1-((5-chloropyridin-2-yl)amino)butan-2-yl)-N-methyl-2-(2H-1,2,3-triazol-2-yl)benzamide] |  | 0.0126 µM | 1.26 µM | 
12 | CC[C@@H](CNc1ccc(Cl)cn1)N(C)C(=O)c1ccccc1-c1ccccc1 [Example 3, (S)—N-(1-((5-chloropyridin-2-yl)amino)butan-2-yl)-N-methyl-[1,1′-biphenyl]-2-carboxamide] |  | 0.02 µM | 1 µM | 
13 | Cc1nc(-c2ccccc2)c(C(=O)N(C)[C@H](CNc2ccc(Cl)cn2)C(C)C)s1 [Example 11, (S)—N-(1-((5-chloropyridin-2-yl)amino)-3-methylbutan-2-yl)-N,2-dimethyl-4-phenylthiazole-5-carboxamide] |  | 0.0794 µM | > 7.94 µM | 
14 | CC(C)[C@@H](CNc1nccc(-c2ccccc2)n1)N(C)C(=O)c1ccccc1-c1ccccc1 [Example 35, (S)—N-methyl-N-(3-methyl-1-((4-phenylpyrimidin-2-yl)amino)butan-2-yl)-[1,1′-biphenyl]-2-carboxamide] |  | 0.0794 µM | 2 µM | 
15 | CC[C@@H](CNc1ccc(Cl)cn1)N(C)C(=O)c1cc(OC)c(C)cc1-n1nccn1 [Example 87, (S)—N-(1-((5-chloropyridin-2-yl)amino)butan-2-yl)-5-methoxy-N,4-dimethyl-2-(2H-1,2,3-triazol-2-yl)benzamide] |  |  |  | 0.00398 µM
16 | CC[C@@H](CNc1ncc2ccccc2n1)N(CC)C(=O)c1nc(C)ccc1-n1nccn1 [Example 72, (S)—N-ethyl-6-methyl-N-(1-(quinazolin-2-ylamino)butan-2-yl)-3-(2H-1,2,3-triazol-2-yl)picolinamide] |  |  |  | 0.00158 µM
17 | CC(C)C[C@@H](CNc1ccc(Cl)cn1)N(C)C(=O)c1ccccc1-c1ccccc1 [Example 8, (S)—N-(1-((5-chloropyridin-2-yl)amino)-4-methylpentan-2-yl)-N-methyl-[1,1′-biphenyl]-2-carboxamide] |  | 0.794 µM | > 10 µM | 
18 | CC(C)[C@@H](COc1ccc(Cl)cn1)N(C)C(=O)c1ccccc1-c1ccccc1 [Example 34, (S)—N-(1-((5-chloropyridin-2-yl)oxy)-3-methylbutan-2-yl)-N-methyl-[1,1′-biphenyl]-2-carboxamide] |  | 0.2 µM | > 3.16 µM | 
19 | Cc1ccc(-n2nccn2)c(C(=O)N(C)[C@H](CNc2cnc(C(F)(F)F)cn2)C(C)C)n1 [Example 67, (S)—N,6-dimethyl-N-(3-methyl-1-((5-(trifluoromethyl)pyrazin-2-yl)amino)butan-2-yl)-3-(2H-1,2,3-triazol-2-yl)picolinamide] |  |  |  | 0.00794 µM
20 | CC[C@@H](CNc1ccc(C(F)(F)F)nc1)N(C)C(=O)c1cc(Cl)ccc1-n1nccn1 [Example 54, (S)-5-chloro-N-methyl-2-(2H-1,2,3-triazol-2-yl)-N-(1-((6-(trifluoromethyl)pyridin-3-yl)amino)butan-2-yl)benzamide] |  | 0.02 µM | 1.26 µM | 
21 | CC[C@@H](CNc1cnc(C(F)(F)F)cn1)N(CC)C(=O)c1nc(C)ccc1-n1nccn1 [Example 70, (S)—N-ethyl-6-methyl-3-(2H-1,2,3-triazol-2-yl)-N-(1-((5-(trifluoromethyl)pyrazin-2-yl)amino)butan-2-yl)picolinamide] |  |  |  | 0.00158 µM
22 | CN(C(=O)c1ccccc1-c1ccccc1)[C@H](CNc1ccc(Cl)cn1)C1CC1 [Example 13, (S)—N-(2-((5-chloropyridin-2-yl)amino)-1-cyclopropylethyl)-N-methyl-[1,1′-biphenyl]-2-carboxamide] |  | 0.0398 µM | 2.51 µM | 
